Here are results for 13 molecules from US20240116985A1, “STAPLED PEPTIDES AND METHODS THEREOF” (priority 2020, published 2024).

For assay [1], the target named is T1, beta-catenin/TCF4 engagement (Homo sapiens, UniProt P35222).
T1 construct: expressed in transfected cells; host or cells: HEK293
T1 sequence (P35222 1-781): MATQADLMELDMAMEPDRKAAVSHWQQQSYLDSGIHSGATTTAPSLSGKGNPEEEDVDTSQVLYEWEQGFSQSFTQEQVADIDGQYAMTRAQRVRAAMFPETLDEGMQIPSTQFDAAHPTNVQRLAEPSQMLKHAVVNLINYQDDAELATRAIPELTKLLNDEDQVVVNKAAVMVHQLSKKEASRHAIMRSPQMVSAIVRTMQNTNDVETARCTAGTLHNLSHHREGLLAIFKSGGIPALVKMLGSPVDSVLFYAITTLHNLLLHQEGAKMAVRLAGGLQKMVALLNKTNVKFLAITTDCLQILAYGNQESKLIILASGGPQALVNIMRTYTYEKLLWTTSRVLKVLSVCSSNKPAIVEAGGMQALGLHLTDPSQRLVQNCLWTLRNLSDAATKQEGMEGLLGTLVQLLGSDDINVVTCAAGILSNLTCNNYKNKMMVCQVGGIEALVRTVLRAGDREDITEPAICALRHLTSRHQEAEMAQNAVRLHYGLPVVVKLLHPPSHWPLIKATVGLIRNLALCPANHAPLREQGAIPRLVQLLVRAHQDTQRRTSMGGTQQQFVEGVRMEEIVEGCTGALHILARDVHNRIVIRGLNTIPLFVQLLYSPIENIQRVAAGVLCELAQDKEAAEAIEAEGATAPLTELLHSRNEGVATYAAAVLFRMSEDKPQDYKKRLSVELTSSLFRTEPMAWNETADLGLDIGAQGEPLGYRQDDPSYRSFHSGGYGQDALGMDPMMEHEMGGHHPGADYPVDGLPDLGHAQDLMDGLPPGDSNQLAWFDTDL
The assay is described as follows: Nano-BRET target engagement assay (B-cat-Halo & TCF4-Luc in HEK293 cells). It is filed as cell-based. To be noted: read-out: NanoBRET Abs IC50. (BRET reads energy transfer from a luciferase to a nearby fluorophore.)

The target of assay [2] is T2, full-length beta-Catenin (Uniprot ID P35222) (Homo sapiens, UniProt P35222).
T2 construct: 10 nM full-length beta-Catenin (Uniprot ID P35222)
T2 sequence (P35222 1-781): T1 sequence (P35222 1-781)
Description: Fluorescence polarization IC50 (beta-catenin / 5FAM-TCF4 10-53 competition). The note with it: fluorescence polarization; read-out: beta-Catenin FP IC50. It is filed as binding.

Where two headings read alike, the source gives them in different places.

Regarding `CC(=O)N1CCC[C@]12CC=CCCCC1(CCCC=CCCCOC(=O)N3CC[C@@](C(=O)N[C@@H](Cc4ccccc4Cl)C(=O)N[C@@H](Cc4csc5ccccc45)C(=O)N[C@@H](CCC(N)=O)C(N)=O)(C3)NC(=O)[C@H](CC(C)C)NC(=O)[C@H](Cc3ccccc3)NC(=O)[C@H](C)NC(=O)[C@H](C)NC(=O)[C@H](CN(CC(=O)O)CC(F)(F)F)NC(=O)[C@H](CC(=O)O)NC1=O)NC(=O)[C@H](CC(C)(C)C)NC(=O)[C@H](CC(=O)O)NC2=O` (stereo partly drawn) [I-1833, Ac-PL3-Asp-Npg-B5-Asp-TfeGA-Ala-Ala-Phe-Leu-PyrS2-2C1F-BztA-Gln-NH2], the IC50 was 6900 nM in assay [1] (absolute IC50) and 26 nM in assay [2].
For `CC(=O)N1CCC[C@]12CC=CCCCC1(CCCC=CCCCOC(=O)N3CC[C@@](C(=O)N[C@@H](Cc4ccsc4)C(=O)N[C@@H](Cc4csc5ccccc45)C(=O)N[C@@H](CCC(N)=O)C(N)=O)(C3)NC(=O)[C@H](CC(C)C)NC(=O)[C@H](Cc3ccccc3)NC(=O)[C@H](C)NC(=O)[C@H](C)NC(=O)[C@H](CCN(CC(=O)O)Cc3ccccc3)NC(=O)[C@H](CC(=O)O)NC1=O)NC(=O)[C@H](CC(C)(C)C)NC(=O)[C@H](CC(=O)O)NC2=O` (stereo partly drawn) [I-1834, Ac-PL3-Asp-Npg-B5-Asp-[Bn]GAbu-Ala-Ala-Phe-Leu-PyrS2-3Thi-BztA-Gln-NH2], in that order: 18800 nM and 35 nM.
As to `CCN(CC[C@@H]1NC(=O)[C@H](CC(=O)O)NC(=O)C2(CCCC=CCCCOC(=O)N3CC[C@@](C(=O)N[C@@H](Cc4ccsc4)C(=O)N[C@@H](Cc4csc5ccccc45)C(=O)N[C@@H](CCC(N)=O)C(N)=O)(C3)NC(=O)[C@H](CC(C)C)NC(=O)[C@H](Cc3ccccc3)NC(=O)[C@H](C)NC(=O)[C@H](C)NC1=O)CCCC=CC[C@]1(CCCN1C(C)=O)C(=O)N[C@@H](CC(=O)O)C(=O)N[C@@H](CC(C)(C)C)C(=O)N2)CC(=O)O` (stereo partly drawn) [I-1835, Ac-PL3-Asp-Npg-B5-Asp-[Et]GAbu-Ala-Ala-Phe-Leu-PyrS2-3Thi-BztA-Gln-NH2], the IC50 in assay [1] (absolute IC50) is 31900 nM; in assay [2] it was 34 nM.
For `CC(=O)N1CCC[C@]12CC=CCCCC1(CCCC=CCCCOC(=O)N3CC[C@@](C(=O)N[C@@H](Cc4ccsc4)C(=O)N[C@@H](Cc4csc5ccccc45)C(=O)N[C@@H](CCC(N)=O)C(N)=O)(C3)NC(=O)[C@H](CC(C)C)NC(=O)[C@H](Cc3ccccc3)NC(=O)[C@H](C)NC(=O)[C@H](C)NC(=O)[C@H](CCN(CCCC(F)(F)F)CC(=O)O)NC(=O)[C@H](CC(=O)O)NC1=O)NC(=O)[C@H](CC(C)(C)C)NC(=O)[C@H](CC(=O)O)NC2=O` (stereo partly drawn) [I-1837, Ac-PL3-Asp-Npg-B5-Asp-[Tfb]GAbu-Ala-Ala-Phe-Leu-PyrS2-3Thi-BztA-Gln-NH2], the IC50 is 18500 nM in assay [1] (absolute IC50) and 19 nM in assay [2].
Taken in the same sequence, the figures for `CC(=O)N1CCC[C@]12CC=CCCCC1(CCCC=CCCCOC(=O)N3CC[C@@](C(=O)N[C@@H](Cc4ccsc4)C(=O)N[C@@H](Cc4csc5ccccc45)C(=O)N[C@@H](CCC(N)=O)C(N)=O)(C3)NC(=O)[C@H](CC(C)C)NC(=O)[C@H](Cc3ccccc3)NC(=O)[C@H](C)NC(=O)[C@H](C)NC(=O)[C@H](CCN(CC(=O)O)Cc3c(F)c(F)c(F)c(F)c3F)NC(=O)[C@H](CC(=O)O)NC1=O)NC(=O)[C@H](CC(C)(C)C)NC(=O)[C@H](CC(=O)O)NC2=O` (stereo partly drawn) [I-1838, Ac-PL3-Asp-Npg-B5-Asp-[Pfbn]GAbu-Ala-Ala-Phe-Leu-PyrS2-3Thi-BztA-Gln-NH2] were 7900 nM and 85 nM.
On to `CC(=O)N1CCC[C@]12CC=CCCCC1(CCCC=CCCCOC(=O)N3CC[C@@](C(=O)N[C@@H](Cc4ccsc4)C(=O)N[C@@H](Cc4csc5ccccc45)C(=O)N[C@@H](CCC(N)=O)C(N)=O)(C3)NC(=O)[C@H](CC(C)C)NC(=O)[C@H](Cc3ccccc3)NC(=O)[C@H](C)NC(=O)[C@H](C)NC(=O)[C@H](CCN(CCC(F)(F)F)CC(=O)O)NC(=O)[C@H](CC(=O)O)NC1=O)NC(=O)[C@H](CC(C)(C)C)NC(=O)[C@H](CC(=O)O)NC2=O` (stereo partly drawn) [I-1839, Ac-PL3-Asp-Npg-B5-Asp-[Tfp]GAbu-Ala-Ala-Phe-Leu-PyrS2-3Thi-BztA-Gln-NH2], for which the figures for the IC50 in assay [1] (absolute IC50) and in assay [2] were 14600 nM and 21 nM, respectively.
For `CC(=O)N(CC[C@@H]1NC(=O)[C@H](CC(=O)O)NC(=O)C2(CCCC=CCCCOC(=O)N3CC[C@@](C(=O)N[C@@H](Cc4ccsc4)C(=O)N[C@@H](Cc4csc5ccccc45)C(=O)N[C@@H](CCC(N)=O)C(N)=O)(C3)NC(=O)[C@H](CC(C)C)NC(=O)[C@H](Cc3ccccc3)NC(=O)[C@H](C)NC(=O)[C@H](C)NC1=O)CCCC=CC[C@]1(CCCN1C(C)=O)C(=O)N[C@@H](CC(=O)O)C(=O)N[C@@H](CC(C)(C)C)C(=O)N2)CC(=O)O` (stereo partly drawn) [I-1840, Ac-PL3-Asp-Npg-B5-Asp-[Ac]GAbu-Ala-Ala-Phe-Leu-PyrS2-3Thi-BztA-Gln-NH2], in that order: 22300 nM and 14 nM.
For the molecule `CC(=O)N1CCC[C@]12CC=CCCCC1(CCCC=CCCCOC(=O)N3CC[C@@](C(=O)N[C@@H](Cc4ccsc4)C(=O)N[C@@H](Cc4csc5ccccc45)C(=O)N[C@@H](CCC(N)=O)C(N)=O)(C3)NC(=O)[C@H](CC(C)C)NC(=O)[C@H](Cc3ccccc3)NC(=O)[C@H](C)NC(=O)[C@H](C)NC(=O)[C@H](CCNCC(=O)O)NC(=O)[C@H](CC(=O)O)NC1=O)NC(=O)[C@H](CC(C)(C)C)NC(=O)[C@H](CC(=O)O)NC2=O` (stereo partly drawn) [I-1841, Ac-PL3-Asp-Npg-B5-Asp-GAbu-Ala-Ala-Phe-Leu-PyrS2-3Thi-BztA-Gln-NH2], the IC50 in assay [1] (absolute IC50) was over 20000 nM; in assay [2], 76 nM.
`CC(=O)N1CCC[C@]12CC=CCCCC1(CCCC=CCCCOC(=O)N3CC[C@@](C(=O)N[C@@H](Cc4ccsc4)C(=O)N[C@@H](Cc4csc5ccccc45)C(=O)N[C@@H](CCC(N)=O)C(N)=O)(C3)NC(=O)[C@H](CC(C)C)NC(=O)[C@H](Cc3ccccc3)NC(=O)[C@H](C)NC(=O)[C@H](C)NC(=O)[C@H](CNc3ccc([N+](=O)[O-])cc3C(=O)O)NC(=O)[C@H](CC(=O)O)NC1=O)NC(=O)[C@H](CC(C)(C)C)NC(=O)[C@H](CC(=O)O)NC2=O` (stereo partly drawn) [I-1843, Ac-PL3-Asp-Npg-B5-Asp-[2COOH4NO2Ph]Dap-Ala-Ala-Phe-Leu-PyrS2-3Thi-BztA-Gln-NH2]: the IC50 is 9500 nM in assay [1] (absolute IC50) and 32 nM in assay [2].
Regarding `CC(=O)N1CCC[C@]12CC=CCCCC1(CCCC=CCCCOC(=O)N3CC[C@@](C(=O)N[C@@H](Cc4ccsc4)C(=O)N[C@@H](Cc4csc5ccccc45)C(=O)N[C@@H](CCC(N)=O)C(N)=O)(C3)NC(=O)[C@H](CC(C)C)NC(=O)[C@H](Cc3ccccc3)NC(=O)[C@H](C)NC(=O)[C@H](C)NC(=O)[C@H](CNc3ncccc3C(=O)O)NC(=O)[C@H](CC(=O)O)NC1=O)NC(=O)[C@H](CC(C)(C)C)NC(=O)[C@H](CC(=O)O)NC2=O` (stereo partly drawn) [I-1845, Ac-PL3-Asp-Npg-B5-Asp-[2Nic]Dap-Ala-Ala-Phe-Leu-PyrS2-3Thi-BztA-Gln-NH2], the IC50 in assay [1] (absolute IC50) was 6300 nM; in assay [2] it was 30 nM.
For `CC(=O)N1CC2CC1C(=O)N[C@@H](CC(=O)O)C(=O)N[C@@H](CC(C)(C)C)C(=O)NC1(CCCC=CCCCOC(=O)N3CC[C@@](C(=O)N[C@@H](Cc4ccccc4Cl)C(=O)N[C@@H](Cc4csc5ccccc45)C(=O)N[C@@H](CCC(N)=O)C(N)=O)(C3)NC(=O)[C@H]([C@@H](C)O)NC(=O)[C@H](Cc3ccccc3)NC(=O)[C@H](C)NC(=O)[C@H](C)NC(=O)[C@H](CN(CC(=O)O)CC(F)(F)F)NC(=O)[C@H](CC(=O)O)NC1=O)CCCC=CCCC(=O)O2` (stereo partly drawn) [I-1846, Ac-HyPEs5-Asp-Npg-B5-Asp-TfeGA-Ala-Ala-Phe-Thr-PyrS2-2C1F-BztA-Gln-NH2], in that order: 29800 nM and 38 nM.
In the case of `CC(=O)N1CCC[C@]12CC=CCCCC1(CCCC=CCCCOC(=O)N3CC[C@@](C(=O)N[C@@H](Cc4ccccc4Cl)C(=O)N[C@@H](Cc4csc5ccccc45)C(=O)N[C@@H](CO)C(N)=O)(C3)NC(=O)[C@H](C)NC(=O)[C@H](Cc3ccccc3)NC(=O)[C@H](C)NC(=O)[C@H](C)NC(=O)[C@H](Cc3cccc(C(=O)O)c3)NC(=O)[C@H](CC(=O)O)NC1=O)NC(=O)[C@H](CC(C)(C)C)NC(=O)[C@H](CC(=O)O)NC2=O` (stereo partly drawn) [I-1849, Ac-PL3-Asp-Npg-B5-Asp-3COOHF-Ala-Ala-Phe-Ala-PyrS2-2C1F-BztA-Ser-NH2], the figures for the IC50 in assay [1] and in assay [2] were 8800 nM and 19 nM, respectively.
Take `CC(=O)N1CCC[C@]12CC=CCCCC1(CCCC=CCCCOC(=O)N3CC[C@@](C(=O)N[C@@H](Cc4ccccc4Cl)C(=O)N[C@@H](Cc4csc5ccccc45)C(=O)N[C@@H](CO)C(N)=O)(C3)NC(=O)[C@H](C(C)C)NC(=O)[C@H](Cc3ccccc3)NC(=O)[C@H](C)NC(=O)[C@H](C)NC(=O)[C@H](Cc3cccc(C(=O)O)c3)NC(=O)[C@H](CC(=O)O)NC1=O)NC(=O)[C@H](CC(C)(C)C)NC(=O)[C@H](CC(=O)O)NC2=O` (stereo partly drawn) [I-1850, Ac-PL3-Asp-Npg-B5-Asp-3COOHF-Ala-Ala-Phe-Val-PyrS2-2C1F-BztA-Ser-NH2]: the IC50 was determined as 3800 nM in assay [1] and 17 nM in assay [2].

Broadly, the IC50 is the concentration at which inhibition is half-maximal.
